Measurements taken from US7316928B2, “Plant fatty acid amide hydrolases” (The University of North Texas, priority 2003, dated 2008).
Where “and” joins values, the source holds several entries; their conditions need not be identical. Equal values may be shown once. Read-outs that look alike come from different tables or passages of the source.

Tests used:
[1] = molecular target: Arabidopsis NAE amidohydrolase (Arabidopsis thaliana, UniProt Q7XJJ7); test: NAE amidohydrolase activity survey in crude E. coli lysates expressing Arabidopsis cDNA; type: biochemical
[2] = system: Arabidopsis seedlings; test: Arabidopsis seedling growth / root elongation on MS medium with exogenous NAE 12:0; type: in vivo; details: for EC50: Arabidopsis thaliana
Description: FIG. 11A-11C. Lengths of Arabidopsis seedling radicles/roots were measured daily after planting on MS medium that contained increasing concentrations of NAE 12:0. Data points are averages and standard deviation of 20 or more seedlings germinated and grown under identical conditions. There was a pronounced dose-dependent reduction in radicle/root length and elongation rate, similar to that shown previously (Blancaflor et al., 2003) for wildtype seedlings (FIG. 11A), and this seedling growth inhibition was more pronounced at higher NAE concentrations for both knockout lines (FIG. 11B and FIG. 11C).
FIG. 12. The rate of root elongation was calculated by a linear regression of the data presented in FIG. 11, and plotted as a function of NAE concentration.
Composite images were taken from seedlings grown on different plates, and were representative of typical replicate experiments. […] The altered profiles of extractable FAAH enzyme activities in mutant and transgenic plants led to predictable differences in the sensitivity of seedlings to exogenous NAE 12:0 indicating a modified ability of these plants to metabolize NAEs. Seedling growth of Arabidopsis wildtype seedlings was inhibited by exogenous treatment of NAE12:0).

[3] = molecular target: Arabidopsis NAE amidohydrolase (FAAH) (Arabidopsis thaliana, UniProt Q7XJJ7); type: biochemical
[4] = system: rice (Os) FAAH; test: NAE amidohydrolase activity of E. coli lysates expressing rice (Os) FAAH cDNA; type: biochemical, Oryza sativa; details: E. coli lysate, compared with NAE 18:2
[5] = molecular target: Medicago truncatula (Mt) FAAH (Medicago truncatula, UniProt G7ISB0, G303S); type: biochemical; details: E. coli lysate, compared with NAE 18:2
Chain of Medicago truncatula (Mt) FAAH (G7ISB0 whole entry G303S, looked up, the tested form may be a part): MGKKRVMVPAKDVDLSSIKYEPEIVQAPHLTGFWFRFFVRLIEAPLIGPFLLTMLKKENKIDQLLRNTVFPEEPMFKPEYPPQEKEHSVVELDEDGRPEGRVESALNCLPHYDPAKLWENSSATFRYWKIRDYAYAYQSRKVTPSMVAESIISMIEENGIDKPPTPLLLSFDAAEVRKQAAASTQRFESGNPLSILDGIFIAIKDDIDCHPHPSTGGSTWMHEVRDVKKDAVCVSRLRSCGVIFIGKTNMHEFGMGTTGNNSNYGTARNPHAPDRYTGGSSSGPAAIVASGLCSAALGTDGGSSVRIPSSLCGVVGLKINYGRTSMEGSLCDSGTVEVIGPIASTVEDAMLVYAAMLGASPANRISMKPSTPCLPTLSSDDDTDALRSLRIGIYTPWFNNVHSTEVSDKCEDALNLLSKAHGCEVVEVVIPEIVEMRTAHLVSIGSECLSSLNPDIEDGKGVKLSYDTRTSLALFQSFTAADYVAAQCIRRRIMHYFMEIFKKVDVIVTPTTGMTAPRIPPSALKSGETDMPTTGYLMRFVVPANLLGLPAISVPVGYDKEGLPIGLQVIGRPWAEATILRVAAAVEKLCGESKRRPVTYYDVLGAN

[6] = substrate: CCCCC/C=C\C/C=C\C/C=C\C/C=C\CCCC(=O)NCCO; test: purified protein, by the assay type; details: other: apparent, substrate, 1 μg protein, pH 9.0, 30 min, 30° C., Michaelis-Menten fit
[7] = substrate: CCCCC/C=C\C/C=C\CCCCCCCC(=O)NCCO; test: purified protein, by the assay type; details: other: apparent, substrate, 1 μg protein, pH 9.0, 30 min, 30° C., Michaelis-Menten fit
[8] = substrate: CCCCCCCCCCCC(=O)NCCO; test: purified protein, by the assay type; details: other: apparent, substrate, 1 μg protein, pH 9.0, 30 min, 30° C., Michaelis-Menten fit
[9] = substrate: CCCCCCCCCCCCCC(=O)NCCO; test: purified protein, by the assay type; details: other: apparent, substrate, 1 μg protein, pH 9.0, 30 min, 30° C., Michaelis-Menten fit
[10] = substrate: CCCCCCCCCCCCCCCC(=O)NCCO; test: purified protein, by the assay type; details: other: apparent, substrate, 1 μg protein, pH 9.0, 30 min, 30° C., Michaelis-Menten fit

CCCCC/C=C\C/C=C\CCCCCCCC(=O)NCCO [NAE 18:2, N-linoleoylethanolamine]
hydrolysis as substrate by recombinant Arabidopsis NAE amidohydrolase [1]: effectively hydrolyzed

CCCCCCCCCCCC(=O)NCCO [NAE 12:0, N-lauroylethanolamine]
EC50 ([2]; FAAH knockout seedlings, first value of the two knockout lines, read-out: EC50, rate of root elongation): 18 µM | EC50 ([2]; FAAH knockout seedlings, second value of the two knockout lines, read-out: EC50, rate of root elongation): 23 µM | EC50 ([2]; read-out: concentration that reduced growth by 50% (EC50), rate of root elongation, wildtype seedlings): ~29 µM | seedling growth inhibition ([2]; FAAH gene expression reduced, particularly knockouts, 14 d growth): greatly exacerbated | seedling sensitivity to application ([2]; FAAH overexpressors, 14 d growth): essentially insensitive | seedling growth ([2]; wildtype seedlings, continuous exposure, 14 d growth): reduced

ceramide
hydrolysis as substrate by recombinant Arabidopsis NAE amidohydrolase [1]: did not hydrolyze | influence on NAE hydrolysis [1]: nor did ceramide influence NAE hydrolysis

O=S(=O)(F)Cc1ccccc1 [PMSF, Phenylmethylsulfonyl fluoride]
Specific Activity [3]: 11.34 ± 0.55 μmol h^−1 mg^−1 Protein and 9.06 ± 1.86 μmol h^−1 mg^−1 Protein and 7.89 ± 0.37 μmol h^−1 mg^−1 Protein and 6.72 ± 0.70 μmol h^−1 mg^−1 Protein and 5.96 ± 0.43 μmol h^−1 mg^−1 Protein

CCCCCCCCCCCCCCCC(=O)NCCO [NAE 16:0, N-palmitoylethanolamine]
suitability as substrate [4]: equally suitable substrates | suitability as substrate [5]: equally suitable substrates

B1: recombinant Arabidopsis thaliana NAE amidohydrolase (Arabidopsis thaliana) (protein)
chain: MGKYQVMKRASEVDLSTVKYKAETMKAPHLTGLSFKLFVNLLEAPLIGSLIVDYLKKDNGMTKIFRNTVIPEEPMFRPEFPSQEPEHDVVIVGEDESPIDRLETALKCLPQYDPSRSLHADPVSSFRYWKIRDYAYAYRSKLTTPLQVAKRIISIIEEFGYDKPPTPFLIRFDANEVIKQAEASTRRFEQGNPISVLDGIFVTIKDDIDCLPHPTNGGTTWLHEDRSVEKDSAVVSKLRSCGAILLGKANMHELGMGTTGNNSNYGTTRNPHDPKRYTGGSSSGSAAIVAAGLCSAALGTDGGGSVRIPSALCGITGLKTTYGRTDMTGSLCEGGTVEIIGPLASSLEDAFLVYAAILGSSSADRYNLKPSPPCFPKLLSHNGSNAIGSLRLGKYTKWFNDVSSSDISDKCEDILKLLSNNHGCKVVEIVVPELEEMRAAHVISIGSPTLSSLTPYCEAGKNSKLSYDTRTSFAIFRSFSASDYIAAQCLRRRLMEYHLNIFKDVDVIVTPTTGMTAPVIPPDALKNGETNIQVTTDLMRFVLAANLLGFPAISVPVGYDKEGLPIGLQIMGRPWAEATVLGLAAAVEELAPVTKKPAIFYDILNTN
Km [6]: 13.6 ± 2.1 µM | Vmax [6]: 0.298 µmol/min/mg | Km [7]: 26.2 ± 5.3 µM | Vmax [7]: 0.235 µmol/min/mg | Km [8]: 17.6 ± 2.8 µM | Vmax [8]: 0.232 µmol/min/mg | Km [9]: 37.0 ± 5.6 µM | Vmax [9]: 0.152 µmol/min/mg | Km [10]: 50.8 ± 14.1 µM | Vmax [10]: 0.202 µmol/min/mg
